Laboratory results from patent US8859625B2, “Methods to prepare penta-1,4-dien-3-ones and substituted cyclohexanones and derivatives with antitumoral and antiparasitic properties, the compounds and their uses” (Universidade Bandeirante de Sao Paulo-Academia, Paulista …, priority 2006, dated 2014).
“Also recorded” adds a separate entry of the source.

Tests used:
[1] = tested on: amastigote-like forms of Leishmania (L) amazonensis; experiment: Viability of amastigote-like forms from axenic culture by MTT; format: cell-based; conditions: for O.D. (optical density): amastigote-like forms
Protocol: Compounds are solubilized with dimethyl sulfoxide (DMSO) to produce a stock solution from which samples with different concentrations are obtained, by adding the culture medium in sufficient volume as required to attain the first desired concentration with the other concentrations being obtained by serial dilution of this first one, at ratio 2. The cultures are incubated at 22° C. or 34° C. for promastigotes and amastigotes, respectively.
(§1) Viability and/or cellular proliferative assays of promastigote and amastigote forms are also performed by the MTT (diphenyl tetrazolium 3-[4,5-dimethylthiazol-2il]2,5-bromide) method as described by Moreira, et al. (Moreira, M. E. C., Del Portillo, H. A., Milder, R. V., Balanco, J. M. F. and Barcinski, M. A. Heat shock induction of apoptosis in promastigotes of the unicellular organism Leishmania (Leishmania) amazonensis, J. Cell Physiol 167, 305-313, 1996), modified.
(§2) After incubation of parasitic forms with the compounds, as described above, for predetermined periods of time for each experiment (24, 48, 72 hours, etc.), an 1.0 mL aliquot of cellular suspension is collected from each culture tube or vial and transferred to microcentrifuge tubes, where they are centrifuged at 14.000 rpm for 3 minutes, the culture medium is aspirated and discharged. To the sedimented cells are add 200 μL of PBS. After that, the volume in PBS of the cellular suspensions is splitted into two wells (duplicates of 100 μL each) of a 96 well culture plate. To each duplicate, […] of MTT (5 mg/mL stock solution, […]) are added. After 1 h or 1 h 30 min, at a temperature of 22° C. (promastigotes) or 34° C. (amastigotes), 100 μL of 10% SDS are added to each well to interrupt the reaction, to lyse the cells and to dissolve the formazan crystals, resulting in an homogeneous blue solution appropriate to the absorbance measure by a spectrophotometer for culture microplates (3550 BIORAD model, Richmond, Calif.), at 595 nm as test wavelength and 690 nm as the reference wavelength.
(§3) The optical density (O.D.) values correspond to MTT enzymatic reduction by the metabolic active cells. Consequently, the O.D. is directly proportional to the number of viable cells of the cellular suspension. The progressive increase of O.D. indicates cellular proliferation. Results are expressed as arithmetic average of the optical density duplicates.
Considering that the amastigote forms are those that multiply inside a vertebrate host and, consequently, are responsible for the disease, it is indispensable to evaluate the viability of these forms when incubated with HB-1.
This evaluation is performed as previously described and by applying the amastigote forms obtained from an axenic culture.

[2] = tested on: promastigotes of Leishmania (isolate D.C.L.); experiment: Promastigote viability by MTT, D.C.L. isolate, Warren medium; format: cell-based; conditions: for O.D. (optical density at 595/690 nm wavelength): Warren medium
Protocol: as §1, §2, §3
This experiment is developed in the Warren medium using an initial inoculum of 2.0×10^6/mL of the medium for the isolates. Cultures were at the day 7^h of passage and at the final exponential phase growth (day 6 of incubation). The results of viability determination for the Leishmania (isolate L.C.L.) promastigotes, incubated in Warren medium and in the presence of HB-1, are shown in the next Table and in FIG. 36. The culture final volume is of 5 mL and the MTT reactions are processed in 1 h and 30 minutes of incubation, beginning with 1.0 mL of culture.
In the next Table and in FIG. 37 are shown the results of viability determination for the promastigotes of Leishmania (isolate D.C.L.) incubated in Warren medium in the presence of HB-1.

B16F10 melanoma = experiment: Histological analysis of mice bearing B16F10 dorsal melanoma; format: in vivo, C57BL/6J mice; conditions: diluted in Miglyol 810, 1.15 μg/kg intraperitoneal
Source text: Animals are sacrificed by cervical displacement and the organ fragments were collected from the areas next to the tumoral region, stored in vials containing 10% formaldehyde, and fixed to be submitted to the routine histological processing (PARDI, P C; SIMÕES, M J, BINIVIGNAT, G. O—Ultrastructural study of the remodeling of the stroma of persistent-estrous rats—Rev. Chil. Cienc. Méd. Biol 3(2):61-65, 1993).
Melanoma B16F10 cell line are implanted at 5×10^4 cells per animal, the ideal dose to obtain the expected results and already proclaimed for this chosen type of animal.
All animals are treated after Day 14 of tumor implant and, as a result, the sequence of necropsis initiates at Day 15.
To visualize the results of HB-1 administration, animals are allocated into the following groups:
2—HB-1 group, treated with HB-1 diluted in Miglyol 810®, kept under ad libitum feed and water.
In both cases, the standard administered dose is of 1.15 μg/kg, via intraperitoneal as the elicited administration route.
Animals are sacrificed by cervical displacement and necropsis is performed with the material immediately collected and transferred to vials containing 10% formaldehyde and, after a 1 to 2 day period, submitted to a routine histological technique Hystology Technique Manual (Manual De Técnicas Para Histologia—Normal E Patológica: Castro De Tolosa, Rodrigues, Behmer E Freitas Neto, Editora Manole 2003).
After the fixation procedure to the thin plate, the hematoxylin/eosin staining method—Hystology Technique Manual (Manual (Manual De Técnicas Para Histologia—Normal E Patológica: Castro De Tolosa, Rodrigues, Behmer E Freitas Neto, Editora Manole 2003). is applied as it presents good results for tissue and cell morphologic evaluation, mainly to the components in each block.
After staining, the thin plates are mounted, then analysed by a ZEISS microscopy with a AXIOCAM-MRC3 trade mark digital camera, and the resulting pictures processed by a AXIOVISON REL 4.2 (Carl Zeiss Inc.) software, registered by a computer.

## COc1cc(C=CC(=O)C=Cc2ccc(O)c(OC)c2)ccc1O [HB-1, 1,5-Bis-(4-hydroxy-3-methoxy-phenyl)-penta-1,4-dien-3-one]
[1]; 10 μg/mL and 20 μg/mL, first 24 hours
  inhibition of cellular activity of amastigotes: 100%
[1]; HB-1 5 μg/mL, 24 hours
  O.D. (optical density): 0.16
[1]; HB-1 5 μg/mL, 48 hours
  O.D. (optical density): 0.012
[1]; HB-1 5 μg/mL, 72 hours
  O.D. (optical density): 0.012
[1]; HB-1 10 μg/mL, 24 hours
  O.D. (optical density): 0.010
[1]; HB-1 10 μg/mL, 48 hours
  O.D. (optical density): 0.014
[1]; HB-1 10 μg/mL, 72 hours
  O.D. (optical density): 0.014
[1]; HB-1 20 μg/mL, 24 hours
  O.D. (optical density): 0.009
[1]; HB-1 20 μg/mL, 48 hours
  O.D. (optical density): 0.012
[1]; HB-1 20 μg/mL, 72 hours
  O.D. (optical density): 0.016
[1]; all assayed concentrations, first 48 hours
  parasites nonviable: 100%
[2]; HB-1 5 μg/mL, 24 hours
  O.D. (optical density at 595/690 nm wavelength): 0.299
[2]; HB-1 5 μg/mL, 48 hours
  O.D. (optical density at 595/690 nm wavelength): 0.682
[2]; HB-1 5 μg/mL, 72 hours
  O.D. (optical density at 595/690 nm wavelength): 0.785
[2]; HB-1 10 μg/mL, 24 hours
  O.D. (optical density at 595/690 nm wavelength): 0.083
[2]; HB-1 10 μg/mL, 48 hours
  O.D. (optical density at 595/690 nm wavelength): 0.059
[2]; HB-1 10 μg/mL, 72 hours
  O.D. (optical density at 595/690 nm wavelength): 0.017
[2]; HB-1 10 μg/mL, 96 hours
  O.D. (optical density at 595/690 nm wavelength): 0.016
[2]; HB-1 20 μg/mL, 24 hours
  O.D. (optical density at 595/690 nm wavelength): 0.025
[2]; HB-1 20 μg/mL, 48 hours
  O.D. (optical density at 595/690 nm wavelength): 0.012
[2]; HB-1 20 μg/mL, 72 hours
  O.D. (optical density at 595/690 nm wavelength): 0.016
[2]; HB-1 20 μg/mL, 96 hours
  O.D. (optical density at 595/690 nm wavelength): 0.013
[2]; HB-1 from 10 μg/mL
  effect in words: leishmanicide effect
B16F10 melanoma; 14 day treatment
  leukocytic infiltrate in dorsal tumor: presence of a leukocytic infiltrate in the peri- and intratumoral portions
B16F10 melanoma; compared to control group
  lung parenchyma alterations: No alterations of thickness or bronchium epithelium rupture
  metastatic lesions: no metastatic lesions were found; also recorded: presence of metastatic masses or nodules was not observed
